Measurements taken from PubChem BioAssay AID1963839 (Molecular Pharmacology Branch, DTP, NCI, 2024).
pIC50: −log10 of the molar value.

Test system: 817829-284-R-J1-PDC complex spheroid viability
Assay: Anticancer human tumor 817829-284-R-J1-PDC patient-derived colon adenocarcinoma cell line growth inhibition [POLQ]
Settings: for pIC50: curve of first compound; for viability, T/C: stronger effect = lower value
Description: Multicellular complex tumor spheroid response to Polymerase (POL) inhibitors (novobiocin, ART-558, RP6685) in combination with a variety of drugs and investigational agents in selected tumor cell lines
The POL inhibitors (novobiocin, ART-558, and RP6685) were evaluated both individually and in combination with standard of care and investigational anticancer small molecules within a complex spheroid model of solid tumors. . Complex spheroids include a stromal component modeled by human endothelial cells (HUVEC) and fibroblasts modeled by human mesenchymal stem cells (MSCs). The concentration ranges selected for each drug and investigational agent were based upon clinically achievable concentrations if the clinical Cmax of the agent was known.
Compounds. The drugs and investigational agents: novobiocin (NSC847541), ART-558 (NSC835418), RP-6685 (NSC848927), peposertib (NSC802822), ceralasertib (NSC780249), elimusertib (NSC800525), camonsertib (NSC841442), AZD-1390 (NSC803789), olaparib (NSC753686), talazoparib (NSC767125), rucaparib (NSC756644), sotorasib (NSC818433), MRTX-1133 (NSC836407), SN-38 (NSC673596), topotecan (NSC609699), epotoside (NSC141540), doxorubicin (NSC123127), gemcitabine (NSC613327), 5-fluorouracil (NSC19893), paclitaxel (NSC125973), vemurafenib (NSC761431), MSA-2 (NSC828583), SN-011 (NSC837082), adavosertib (NSC754352), prexasertib (NSC758257), carboplatin (NSC241240) and oxaliplatin (NSC266046), were obtained from the National Cancer Institute (NCI) Developmental Therapeutics Program Chemical Repository (21). The FDA-approved anticancer drug set is available from the Developmental Therapeutics Program at https://dtp.cancer.gov/organization/dscb/obtaining/. […] The stock solutions were prepared in dimethyl sulfoxide (DMSO, Sigma-Aldrich, St. Louis, MO, cat. D2650), except for the platinum compounds which were prepared in saline (Quality Biological, Gaithersburg, MD, cat. 114-055-101), at 800-fold the tested concentration and stored at -70 degrees C prior to their use. All drugs and investigational agents were tested over a range starting from a high concentration at or near the clinical Cmax and decreasing in half-log increments. If the clinical Cmax for an agent had not been determined, the highest concentration tested was 10 microM, except for SN-38, which was tested at a high concentration of 1 microM.
Cell Culture. All cells were maintained in an incubator at 37 degrees C and 5% CO2 with 95% humidity. The PDC lines were cultured according to standard operating procedures established by the NCI PDMR (https://pdmr.cancer.gov). Table 3 of the manuscript, lists the cell lines along with the number of the three cell types plated to form the mct-spheroids and media for tumor cell growth. After thawing, all PDC lines, except 997537-175-T-J1-PDC and 415267-285-R-J2-PDC, were cultured in Matrigel-coated flasks prepared with a working solution of 1X Ham's F-12 nutrient mix, without supplementation (Thermo Fisher Scientific, cat. 11765054), 100 U/mL penicillin-streptomycin (Thermo Fisher Scientific, cat. 15140122), and 2.5% Matrigel (Corning Inc., Corning, NY, cat. 354248) for the first three passages. The two PDC lines 997537-175-T-J1-PDC and 415267-285-R-J2-PDC were cultured on uncoated flasks. The 857933-349-R-J2-PDC line was cultured in 6C/Colon 1B media containing advanced DMEM/F-12 (Thermo Fisher Scientific, cat. 12634028), 10 mM HEPES (Thermo Fisher Scientific, cat. 15630080), 1X GlutaMAX supplement (Thermo Fisher Scientific, cat. 35050061), 0.1 mg/mL primocin (InvivoGen, San Diego, CA, cat. ant-pm-2), 10% defined fetal bovine serum, heat inactivated (HyClone Laboratories Inc., Logan, UT, cat. SH30070.03HI), 50% L-WRN conditioned media (ATCC, cat. CRL-3276), 1.25 mM N-Acetyl-L-cysteine (Sigma-Aldrich, cat. A9165), 10 mM nicotinamide (Sigma-Aldrich, cat. N0636), 1X B-27 supplement (Thermo Fisher Scientific, cat. 17504044), 1X N-2 supplement (Thermo Fisher Scientific, cat. […]

[1] = second compound 0.0316 µM, first compound 0.0316 µM
[2] = second compound 0.0316 µM, first compound 0.1 µM
[3] = second compound 0.1 µM, first compound 0.0316 µM
[4] = second compound 0.1 µM, first compound 0.1 µM
[5] = second compound 0.316 µM, first compound 0.0316 µM
[6] = second compound 0.316 µM, first compound 0.1 µM
[7] = second compound 1 µM, first compound 0.0316 µM
[8] = second compound 1 µM, first compound 0.1 µM
[9] = second compound 3.16 µM, first compound 0.0316 µM
[10] = second compound 3.16 µM, first compound 0.1 µM
[11] = second compound 10 µM, first compound 0.0316 µM
[12] = second compound 10 µM, first compound 0.1 µM
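Also: spheroids exposed to compounds for 7 days.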
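For viability, T/C in this document: 100% = DMSO vehicle-treated spheroids.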

## CC(C)n1c(=O)n(C)c2cnc3cc(F)c(-c4ccc(OCCCN5CCCCC5)nc4)cc3c21 + COC1C(OC(N)=O)C(O)C(Oc2ccc3c(O)c(NC(=O)c4ccc(O)c(CC=C(C)C)c4)c(=O)oc3c2C)OC1(C)C
Second compound 0.0316 µM
  pIC50: < 5.00
Second compound 0.1 µM
  pIC50: 5.15
Second compound 0.316 µM
  pIC50: < 5.00
Second compound 1 µM
  pIC50: 5.31
Second compound 3.16 µM
  pIC50: 5.30
Second compound 10 µM
  pIC50: 5.30
[1]
  viability, T/C: 88.5%
[2]
  viability, T/C: 95.9%
Second compound 0.0316 µM, first compound 0.316 µM
  viability, T/C: 61.4%
Second compound 0.0316 µM, first compound 1 µM
  viability, T/C: 93.1%
Second compound 0.0316 µM, first compound 3.16 µM
  viability, T/C: 84.5%
Second compound 0.0316 µM, first compound 10 µM
  viability, T/C: 52.6%
[3]
  viability, T/C: 74.4%
[4]
  viability, T/C: 82.5%
Second compound 0.1 µM, first compound 0.316 µM
  viability, T/C: 129%
Second compound 0.1 µM, first compound 1 µM
  viability, T/C: 102%
Second compound 0.1 µM, first compound 3.16 µM
  viability, T/C: 72.7%
Second compound 0.1 µM, first compound 10 µM
  viability, T/C: 40.2%
[5]
  viability, T/C: 78.5%
[6]
  viability, T/C: 96.5%
Second compound 0.316 µM, first compound 0.316 µM
  viability, T/C: 86.3%
Second compound 0.316 µM, first compound 1 µM
  viability, T/C: 93%
Second compound 0.316 µM, first compound 3.16 µM
  viability, T/C: 71.4%
Second compound 0.316 µM, first compound 10 µM
  viability, T/C: 55.8%
[7]
  viability, T/C: 102%
[8]
  viability, T/C: 102%
Second compound 1 µM, first compound 0.316 µM
  viability, T/C: 84%
Second compound 1 µM, first compound 1 µM
  viability, T/C: 81.1%
Second compound 1 µM, first compound 3.16 µM
  viability, T/C: 62.5%
Second compound 1 µM, first compound 10 µM
  viability, T/C: 31.8%
[9]
  viability, T/C: 81.9%
[10]
  viability, T/C: 87.8%
Second compound 3.16 µM, first compound 0.316 µM
  viability, T/C: 78.6%
Second compound 3.16 µM, first compound 1 µM
  viability, T/C: 85.8%
Second compound 3.16 µM, first compound 3.16 µM
  viability, T/C: 71.3%
Second compound 3.16 µM, first compound 10 µM
  viability, T/C: 16.9%
[11]
  viability, T/C: 80.5%
[12]
  viability, T/C: 65.4%
Second compound 10 µM, first compound 0.316 µM
  viability, T/C: 62.1%
Second compound 10 µM, first compound 1 µM
  viability, T/C: 81.4%
Second compound 10 µM, first compound 3.16 µM
  viability, T/C: 74.4%
Second compound 10 µM, first compound 10 µM
  viability, T/C: 16.9%

## Cn1ncnc1[C@H]1c2n[nH]c(=O)c3cc(F)cc(c23)N[C@@H]1c1ccc(F)cc1 + COC1C(OC(N)=O)C(O)C(Oc2ccc3c(O)c(NC(=O)c4ccc(O)c(CC=C(C)C)c4)c(=O)oc3c2C)OC1(C)C
Second compound 0.0316 µM
  pIC50: 7.51
Second compound 0.1 µM
  pIC50: 8.31
Second compound 0.316 µM
  pIC50: 7.70
Second compound 1 µM
  pIC50: 7.62
Second compound 3.16 µM
  pIC50: 7.99
Second compound 10 µM
  pIC50: 7.51
Second compound 0.0316 µM, first compound 0.000316 µM
  viability, T/C: 107%
Second compound 0.0316 µM, first compound 0.001 µM
  viability, T/C: 63.2%
Second compound 0.0316 µM, first compound 0.00316 µM
  viability, T/C: 72.3%
Second compound 0.0316 µM, first compound 0.01 µM
  viability, T/C: 62.6%
[1]
  viability, T/C: 55.5%
[2]
  viability, T/C: 36.5%
Second compound 0.1 µM, first compound 0.000316 µM
  viability, T/C: 103%
Second compound 0.1 µM, first compound 0.001 µM
  viability, T/C: 109%
Second compound 0.1 µM, first compound 0.00316 µM
  viability, T/C: 52.9%
Second compound 0.1 µM, first compound 0.01 µM
  viability, T/C: 60.4%
[3]
  viability, T/C: 39.9%
[4]
  viability, T/C: 35.4%
Second compound 0.316 µM, first compound 0.000316 µM
  viability, T/C: 104%
Second compound 0.316 µM, first compound 0.001 µM
  viability, T/C: 94.9%
Second compound 0.316 µM, first compound 0.00316 µM
  viability, T/C: 74.4%
Second compound 0.316 µM, first compound 0.01 µM
  viability, T/C: 65.3%
[5]
  viability, T/C: 38%
[6]
  viability, T/C: 36.2%
Second compound 1 µM, first compound 0.000316 µM
  viability, T/C: 94.9%
Second compound 1 µM, first compound 0.001 µM
  viability, T/C: 107%
Second compound 1 µM, first compound 0.00316 µM
  viability, T/C: 85.4%
Second compound 1 µM, first compound 0.01 µM
  viability, T/C: 65%
[7]
  viability, T/C: 47.8%
[8]
  viability, T/C: 31.8%
Second compound 3.16 µM, first compound 0.000316 µM
  viability, T/C: 86.8%
Second compound 3.16 µM, first compound 0.001 µM
  viability, T/C: 102%
Second compound 3.16 µM, first compound 0.00316 µM
  viability, T/C: 97.7%
Second compound 3.16 µM, first compound 0.01 µM
  viability, T/C: 50.1%
[9]
  viability, T/C: 49.9%
[10]
  viability, T/C: 40.3%
Second compound 10 µM, first compound 0.000316 µM
  viability, T/C: 137%
Second compound 10 µM, first compound 0.001 µM
  viability, T/C: 124%
Second compound 10 µM, first compound 0.00316 µM
  viability, T/C: 69.8%
Second compound 10 µM, first compound 0.01 µM
  viability, T/C: 71.6%
[11]
  viability, T/C: 67.2%
[12]
  viability, T/C: 22.3%
